Literature values, collected in patent US9375463B2, “Compositions and methods for improving sleep using a nutraceutical formulation” (Creative Medical Health Inc., priority 2013, dated 2016).

Experiments:
[1] = system: healthy males with normal sleep patterns; conditions: 0.3 or 1.0 mg, orally
[2] = 3 mg
[3] = system: children most of whom were neurologically disabled; conditions: 2-5 mg before bedtime for 7-10 days, fifteen subjects
[4] = system: elderly subjects; conditions: 500 mg daily for 8 weeks, 46 elderly subjects
[5] = system: infants; conditions: daily for 12 months
[6] = system: subjects; conditions: oral, 4 weeks, 9 subjects; by increasing sensitivity to light

## N-acetyl-5-hydroxytryptamine [melatonin]
[1]
  falling asleep faster than individuals given placebo (sleep onset latency): approximately 40 minutes
[2]
  subjective sleep experiences (time to fall asleep, quality of sleep, awakenings): subjective improvements in sleep experiences
[3]
  sleep and moods: improve sleep and moods

## [Mg+2] [magnesium]
[4]
  levels of serum cortisol: reduced the levels of serum cortisol
  subjective measures of sleep: improved subjective measures of sleep

## zinc [zinc supplements]
[5]
  night sleep duration: increased night sleep duration
  night waking: less night waking

## vitamin B12
[6]
  circadian rhythm: advanced the circadian rhythm
